Format in all cases: cell-based
The test system of test [1] is Escherichia coli. Briefly: Agar plate disc-diffusion, antibacterial activity by inhibition zone. As to the method: (§1) The agar plate disc-diffusion method was applied. Sterilized filter papers (6 mm in diameter) were wetted with 10 μL of a solution of compounds 6-(6-bromo-2-oxo-2H-chromen-3-yl)-4-(2-chlorophenyl)-2-ethoxynicotinonitrile 1 or 6-(6-bromo-2-oxo-2H-chromen-3-yl)-4-(2-chlorophenyl)-2-methoxynicotinonitrile 2 to be tested, containing […], and the discs were allowed to air dry. The discs were then placed onto the surface of agar plates (nutrient agar for bacteria and Sabouraud's dextrose agar for fungi) seeded with the test organism. Each plate contained 15 mL of the agar medium, previously seeded with 0.2 mL of the broth culture of each organism pregrown for 18 hours. The plates were incubated at 37° C. for 48 hours, and 72 hours for fungi. The inhibition zones were measured in mm. Discs impregnated with DMSO were used as a control, and its inhibition zone was subtracted from the tested compound actual inhibition zone.
(§2) The results of the antimicrobial testing can be observed in Tables 1 and 2, below, using ciprofloxacin as a reference.
Background: Agar diffusion results depend on both activity and mobility in agar.

For test [2], the system named is Staphylococcus aureus. The test is described as above. As to the method: as §1, §2
Test [3] relates to Pseudomonas aeruginosa. Described as above. The method, then:
as §1, §2

For test [4], the system named is Bacillus cereus. The description is as above. As to the method:
as §1, §2

Test [5] relates to Aspergillus flavus. As to the kind of experiment: Agar plate disc-diffusion, antifungal activity by inhibition zone. As to the method: as §1, §2
In test [6] the test system is Chrysosporium keratinophilum. The description is as above. The method, then: as §1, §2
Test [7] concerns different microbes. As to the kind of experiment: Antimicrobial testing, overall conclusion. As to conditions: summary of Tables 1 and 2. The method, then:
as §1
Their antibacterial activity was screened against gram positive bacteria namely Bacillus cereus and Staphylococcus aureus and gram-negative bacterial strains namely Pseudomonas aeruginosa and Escherichia coli, while their antifungal activity was screened against Aspergillus flavus and Chrysosporium keratinophilum.

Where [8] appears, read: A = concentration of comp. = 10,000 μL.
Where [9] appears, read: B = concentration of comp. = 30,000 μL.
Where [10] appears, read: C = concentration of comp. = 50,000 μL.

Molecules are shown by their SMILES.

For `COc1nc(-c2cc3cc(Br)ccc3oc2=O)cc(-c2ccccc2Cl)c1C#N` [Compound 2, 6-(6-bromo-2-oxo-2H-chromen-3-yl)-4-(2-chlorophenyl)-2-methoxynicotinonitrile], the inhibition zone in test [1] (setting [8]) was determined as 27 mm; in test [1] (setting [9]), 35 mm; in test [1] (setting [10]) it was 46 mm; in test [2] (setting [8]), 16 mm; in test [2] (setting [9]) it was 24 mm; in test [2] (setting [10]), 32 mm. Also, the inhibition zone came to 26 mm in test [3] (setting [8]); 33 mm in test [3] (setting [9]); 39 mm in test [3] (setting [10]); 25 mm in test [4] (setting [8]); 30 mm in test [4] (setting [9]); 39 mm in test [4] (setting [10]). Also, the inhibition zone in test [5] (setting [8]) is reported as 25 mm; in test [5] (setting [9]), 28 mm; in test [5] (setting [10]) it was 39 mm; in test [6] (setting [8]), 22 mm; in test [6] (setting [9]), 28 mm; in test [6] (setting [10]), 41 mm. Besides, the antimicrobial activities entry in test [7] is recorded as “high antimicrobial activities”.

`CCOc1nc(-c2cc3cc(Br)ccc3oc2=O)cc(-c2ccccc2Cl)c1C#N` [Compound 1, 6-(6-bromo-2-oxo-2H-chromen-3-yl)-4-(2-chlorophenyl)-2-ethoxynicotinonitrile]: the inhibition zone in test [1] (setting [8]) was 27 mm; in test [1] (setting [9]) it was 38 mm; in test [1] (setting [10]), 49 mm; in test [2] (setting [8]) it was 17 mm; in test [2] (setting [9]) it was 20 mm; in test [2] (setting [10]) it was 36 mm. In addition, the inhibition zone turned out to be 26 mm in test [3] (setting [8]); 30 mm in test [3] (setting [9]); 40 mm in test [3] (setting [10]); 26 mm in test [4] (setting [8]); 29 mm in test [4] (setting [9]); 39 mm in test [4] (setting [10]). Moreover, the inhibition zone turned out to be 19 mm in test [5] (setting [8]); 21 mm in test [5] (setting [9]); 29 mm in test [5] (setting [10]); 26 mm in test [6] (setting [8]); 27 mm in test [6] (setting [9]); 38 mm in test [6] (setting [10]). The antimicrobial activities entry in test [7] is recorded as “high antimicrobial activities”.

Regarding `O=C(O)c1cn(C2CC2)c2cc(N3CCNCC3)c(F)cc2c1=O` [Cip., ciprofloxacin, reference compound], the inhibition zone in test [1] (setting [8]) stood at 30 mm; in test [1] (setting [9]) it was 39 mm; in test [1] (setting [10]), 60 mm; in test [2] (setting [8]) it was 43 mm; in test [2] (setting [9]), 44 mm; in test [2] (setting [10]) it was 53 mm. Also, the inhibition zone was 29 mm in test [3] (setting [8]); 30 mm in test [3] (setting [9]); 53 mm in test [3] (setting [10]); 29 mm in test [4] (setting [8]); 30 mm in test [4] (setting [9]); 42 mm in test [4] (setting [10]). Moreover, the inhibition zone in test [5] (setting [8]) came to 29 mm; in test [5] (setting [9]), 30 mm; in test [5] (setting [10]), 42 mm; in test [6] (setting [8]), 29 mm; in test [6] (setting [9]), 30 mm; in test [6] (setting [10]) it was 53 mm.

(Values after patent publication US11905278B1, “6-(6-bromo-2-oxo-2H-chromen-3-yl)-4-(2-chlorophenyl)-2-alkoxynicotinonitrile as an antimicrobial compound” (KING FAISAL UNIVERSITY, priority 2023, dated 2024).)
